Measured values taken from ChEMBL document CHEMBL5518204, “Discovery and Proof of Concept of Potent Dual Polθ/PARP Inhibitors for Efficient Treatment of Homologous Recombination-Deficient Tumors” (J Med Chem, 2024).
The source made the active and inactive calls. The rule behind the calls is not given here.

Experiments:
[1] = Tmax in Sprague-Dawley rat at 1 mg/kg, iv by LC-MS/MS analysis; assay type: ADME, organism-based; details: in vivo
MCF-10A [2] = assay: Effect on PARP1 expression in human MCF-10A cells by immunoblotting analysis; assay type: functional, cell-based
[3] = molecular target: T1, Protein mono-ADP-ribosyltransferase PARP8 (Homo sapiens, UniProt Q8N3A8); assay: Inhibition of PARP8 (unknown origin)
T1 sequence (Q8N3A8 whole entry): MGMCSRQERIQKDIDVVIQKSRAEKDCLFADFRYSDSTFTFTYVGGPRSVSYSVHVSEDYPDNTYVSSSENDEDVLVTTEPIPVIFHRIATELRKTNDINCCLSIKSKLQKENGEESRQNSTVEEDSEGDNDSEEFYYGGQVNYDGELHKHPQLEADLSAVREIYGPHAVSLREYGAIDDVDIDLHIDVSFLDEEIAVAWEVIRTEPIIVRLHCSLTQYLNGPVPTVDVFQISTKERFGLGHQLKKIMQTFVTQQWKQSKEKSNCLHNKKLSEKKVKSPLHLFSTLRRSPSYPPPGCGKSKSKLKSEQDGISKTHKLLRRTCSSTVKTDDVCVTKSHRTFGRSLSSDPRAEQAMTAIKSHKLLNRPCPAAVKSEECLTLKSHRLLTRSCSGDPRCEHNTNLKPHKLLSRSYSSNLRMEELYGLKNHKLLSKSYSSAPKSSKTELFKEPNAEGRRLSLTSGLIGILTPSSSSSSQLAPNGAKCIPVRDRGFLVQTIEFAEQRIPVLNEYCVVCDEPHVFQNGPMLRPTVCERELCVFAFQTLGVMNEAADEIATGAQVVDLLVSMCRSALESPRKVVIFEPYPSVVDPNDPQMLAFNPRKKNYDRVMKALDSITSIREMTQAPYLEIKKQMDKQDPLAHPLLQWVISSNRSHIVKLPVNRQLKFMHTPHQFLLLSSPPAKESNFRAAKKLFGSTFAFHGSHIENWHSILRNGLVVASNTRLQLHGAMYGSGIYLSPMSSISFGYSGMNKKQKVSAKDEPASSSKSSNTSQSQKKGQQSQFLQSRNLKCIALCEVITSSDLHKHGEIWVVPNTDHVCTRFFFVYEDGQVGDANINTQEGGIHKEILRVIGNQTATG

MDA-MB-436 [4] = assay: Antiproliferative activity against BRCA1-deficient human MDA-MB-436 cells assessed as inhibition of cell proliferation incubated for 5 days by MTT assay; assay type: functional, cell-based; details: MDA-MB-436, 120 h
[5] = molecular target: T2, Protein mono-ADP-ribosyltransferase PARP3 (Homo sapiens, UniProt Q9Y6F1); assay: Inhibition of PARP3 (unknown origin)
T2 sequence (Q9Y6F1 whole entry): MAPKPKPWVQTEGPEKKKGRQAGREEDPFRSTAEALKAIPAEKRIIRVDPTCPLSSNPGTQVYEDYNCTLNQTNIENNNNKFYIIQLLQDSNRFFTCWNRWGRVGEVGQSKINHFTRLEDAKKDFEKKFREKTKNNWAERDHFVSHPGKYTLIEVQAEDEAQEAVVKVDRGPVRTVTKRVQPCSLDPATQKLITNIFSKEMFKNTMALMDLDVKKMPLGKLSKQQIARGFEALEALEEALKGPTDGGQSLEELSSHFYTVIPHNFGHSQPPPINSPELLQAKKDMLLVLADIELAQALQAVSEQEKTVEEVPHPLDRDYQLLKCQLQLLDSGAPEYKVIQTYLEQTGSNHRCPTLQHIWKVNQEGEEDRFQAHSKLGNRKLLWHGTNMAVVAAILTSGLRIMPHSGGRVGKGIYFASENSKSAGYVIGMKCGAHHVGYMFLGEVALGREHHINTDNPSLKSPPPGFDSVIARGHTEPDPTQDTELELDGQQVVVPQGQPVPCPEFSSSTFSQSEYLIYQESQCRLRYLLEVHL

MDA-MB-231 [6] = assay: Antitumor activity against human MDA-MB-231 cells xenografted in ip dosed BALB/c mouse assessed as increase in gammaH2Ax expression administered for 21 days; assay type: functional, organism-based; details: dose 20-40 mg/kg, time 21.0 day
MDA-MB-231 [7] = assay: Induction of DNA damage in human MDA-MB-231 cells assessed as increase in gammaH2AX foci at 2 uM incubated for 3 days by DAPI staining based confocal laser scanning microscopic analysis; assay type: functional, cell-based; details: time 3.0 day
MCF-10A [8] = assay: Effect on DNA polymerase theta expression in human MCF-10A cells by immunoblotting analysis; assay type: functional, cell-based
DNA polymerase theta = DNA polymerase theta (Homo sapiens, UniProt O75417); assay: Inhibition of DNA polymerase theta (unknown origin) ATPase activity incubated for 60 mins in presence of ATP by ADP-glo kinase assay
Chain of DNA polymerase theta (O75417 whole entry): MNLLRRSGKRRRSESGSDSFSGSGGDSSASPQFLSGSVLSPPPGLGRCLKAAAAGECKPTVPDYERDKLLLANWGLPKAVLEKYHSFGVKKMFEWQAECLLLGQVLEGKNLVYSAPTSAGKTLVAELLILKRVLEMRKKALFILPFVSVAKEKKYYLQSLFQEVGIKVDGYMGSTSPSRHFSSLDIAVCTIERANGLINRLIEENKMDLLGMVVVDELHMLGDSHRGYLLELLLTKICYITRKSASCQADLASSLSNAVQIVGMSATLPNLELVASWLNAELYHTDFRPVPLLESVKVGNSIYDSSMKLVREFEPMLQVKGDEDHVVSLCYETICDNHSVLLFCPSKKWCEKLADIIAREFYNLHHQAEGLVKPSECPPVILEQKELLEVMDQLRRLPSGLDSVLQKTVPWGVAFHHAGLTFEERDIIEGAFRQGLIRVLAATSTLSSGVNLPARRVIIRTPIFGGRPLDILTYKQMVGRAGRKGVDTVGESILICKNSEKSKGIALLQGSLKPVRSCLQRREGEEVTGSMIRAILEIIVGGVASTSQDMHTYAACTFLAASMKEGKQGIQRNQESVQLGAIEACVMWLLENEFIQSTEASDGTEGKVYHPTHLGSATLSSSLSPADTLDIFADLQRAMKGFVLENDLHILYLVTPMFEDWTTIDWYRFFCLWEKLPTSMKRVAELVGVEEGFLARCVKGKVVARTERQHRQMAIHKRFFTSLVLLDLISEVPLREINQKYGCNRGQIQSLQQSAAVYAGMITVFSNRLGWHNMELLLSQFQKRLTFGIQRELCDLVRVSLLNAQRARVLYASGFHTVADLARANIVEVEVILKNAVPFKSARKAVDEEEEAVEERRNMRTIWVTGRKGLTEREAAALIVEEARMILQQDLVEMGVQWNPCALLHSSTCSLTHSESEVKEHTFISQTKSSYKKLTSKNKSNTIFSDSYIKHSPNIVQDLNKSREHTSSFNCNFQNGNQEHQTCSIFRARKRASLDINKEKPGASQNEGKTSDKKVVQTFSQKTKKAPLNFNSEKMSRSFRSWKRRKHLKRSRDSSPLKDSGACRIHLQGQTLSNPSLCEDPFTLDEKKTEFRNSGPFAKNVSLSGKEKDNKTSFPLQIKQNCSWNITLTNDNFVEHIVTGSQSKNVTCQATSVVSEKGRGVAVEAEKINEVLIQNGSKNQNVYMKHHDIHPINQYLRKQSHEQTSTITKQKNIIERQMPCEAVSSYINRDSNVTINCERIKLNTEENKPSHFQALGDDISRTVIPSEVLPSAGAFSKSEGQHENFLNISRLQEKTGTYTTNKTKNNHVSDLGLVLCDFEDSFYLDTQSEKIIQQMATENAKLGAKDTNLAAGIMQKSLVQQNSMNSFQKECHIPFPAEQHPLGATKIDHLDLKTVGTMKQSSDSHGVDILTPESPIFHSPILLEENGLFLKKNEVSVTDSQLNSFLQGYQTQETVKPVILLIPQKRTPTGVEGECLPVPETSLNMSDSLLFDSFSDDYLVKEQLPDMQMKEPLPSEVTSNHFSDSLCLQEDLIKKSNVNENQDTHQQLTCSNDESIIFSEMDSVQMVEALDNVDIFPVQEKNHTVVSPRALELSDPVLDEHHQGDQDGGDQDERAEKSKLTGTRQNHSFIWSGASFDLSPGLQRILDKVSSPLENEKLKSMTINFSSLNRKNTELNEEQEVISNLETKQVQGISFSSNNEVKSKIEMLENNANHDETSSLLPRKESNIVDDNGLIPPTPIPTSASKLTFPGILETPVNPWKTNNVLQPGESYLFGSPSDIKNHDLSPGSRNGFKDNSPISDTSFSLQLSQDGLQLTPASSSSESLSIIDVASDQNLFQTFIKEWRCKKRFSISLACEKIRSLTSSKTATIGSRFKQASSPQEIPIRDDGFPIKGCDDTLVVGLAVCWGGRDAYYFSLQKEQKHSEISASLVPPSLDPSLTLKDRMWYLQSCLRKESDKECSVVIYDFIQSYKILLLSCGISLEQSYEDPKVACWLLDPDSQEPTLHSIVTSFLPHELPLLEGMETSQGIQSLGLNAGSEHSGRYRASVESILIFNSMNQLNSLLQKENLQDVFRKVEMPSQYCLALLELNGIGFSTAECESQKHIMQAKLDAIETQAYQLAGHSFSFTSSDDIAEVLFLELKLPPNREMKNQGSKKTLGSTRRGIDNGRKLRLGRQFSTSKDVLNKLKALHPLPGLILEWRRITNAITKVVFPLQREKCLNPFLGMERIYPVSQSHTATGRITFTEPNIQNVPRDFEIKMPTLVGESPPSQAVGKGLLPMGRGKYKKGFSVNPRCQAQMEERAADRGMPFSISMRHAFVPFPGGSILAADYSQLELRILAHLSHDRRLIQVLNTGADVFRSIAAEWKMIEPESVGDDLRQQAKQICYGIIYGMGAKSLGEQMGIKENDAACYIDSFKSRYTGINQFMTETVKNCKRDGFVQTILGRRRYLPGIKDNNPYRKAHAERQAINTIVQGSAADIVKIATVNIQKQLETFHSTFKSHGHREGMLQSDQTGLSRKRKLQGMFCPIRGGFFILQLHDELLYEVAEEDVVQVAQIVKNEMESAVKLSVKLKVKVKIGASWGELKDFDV

[9] = AUC (0 to infinity) in Sprague-Dawley rat at 1 mg/kg, iv by LC-MS/MS analysis; assay type: ADME, organism-based; details: in vivo
[10] = molecular target: Poly [ADP-ribose] polymerase 1 (Homo sapiens, UniProt P09874); details: dose 10.0 nM, time 90.0 min
Chain of Poly [ADP-ribose] polymerase 1 (P09874 whole entry): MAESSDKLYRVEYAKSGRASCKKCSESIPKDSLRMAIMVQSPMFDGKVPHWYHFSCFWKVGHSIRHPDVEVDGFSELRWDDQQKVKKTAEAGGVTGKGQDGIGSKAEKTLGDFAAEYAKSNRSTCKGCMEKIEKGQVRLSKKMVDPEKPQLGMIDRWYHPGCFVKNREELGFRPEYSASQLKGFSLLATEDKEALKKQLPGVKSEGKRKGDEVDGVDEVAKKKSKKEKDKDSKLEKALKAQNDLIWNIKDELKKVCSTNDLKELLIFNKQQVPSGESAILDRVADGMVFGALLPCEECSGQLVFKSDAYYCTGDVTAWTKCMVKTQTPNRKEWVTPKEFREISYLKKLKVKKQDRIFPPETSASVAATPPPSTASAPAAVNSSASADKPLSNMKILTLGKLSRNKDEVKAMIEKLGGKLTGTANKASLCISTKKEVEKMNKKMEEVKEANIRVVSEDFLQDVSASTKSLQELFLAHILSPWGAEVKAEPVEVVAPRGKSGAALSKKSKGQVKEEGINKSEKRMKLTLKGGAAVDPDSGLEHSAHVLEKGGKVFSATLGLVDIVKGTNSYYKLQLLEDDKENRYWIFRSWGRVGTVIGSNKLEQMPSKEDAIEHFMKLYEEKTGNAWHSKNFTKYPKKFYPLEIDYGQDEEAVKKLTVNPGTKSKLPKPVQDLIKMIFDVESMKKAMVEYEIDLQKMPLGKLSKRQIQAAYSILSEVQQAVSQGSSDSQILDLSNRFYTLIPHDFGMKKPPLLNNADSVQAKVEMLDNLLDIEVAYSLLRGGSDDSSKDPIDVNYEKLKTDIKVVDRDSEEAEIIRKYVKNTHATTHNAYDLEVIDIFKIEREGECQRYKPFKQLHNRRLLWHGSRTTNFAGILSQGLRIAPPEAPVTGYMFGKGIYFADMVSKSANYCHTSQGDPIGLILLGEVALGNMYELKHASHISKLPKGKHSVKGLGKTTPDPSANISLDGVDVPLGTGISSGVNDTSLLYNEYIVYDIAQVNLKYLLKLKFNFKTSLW

MDA-MB-436 [11] = assay: Antiproliferative activity against human MDA-MB-436 cells transfected with SiRNA assessed as inhibition of cell proliferation incubated for 5 days by MTT assay; assay type: functional, cell-based; details: time 5.0 day
[12] = Stability in mouse plasma assessed as half life; assay type: ADME, cell-free
[13] = Cmax in Sprague-Dawley rat at 1 mg/kg, iv by LC-MS/MS analysis; assay type: ADME, organism-based; details: in vivo
[14] = Antiproliferative activity against human MCF-10A cells assessed as inhibition of cell proliferation incubated for 5 days by MTT assay; assay type: toxicity, cell-based; details: human, MCF-10A cells
[15] = Toxicity in BALB/c mouse xenografted with human MDA-MB-231 cells assessed as lung damage at 20 to 40 mg/kg, ip administered for 21 days by H and E staining based analysis; assay type: organism-based; details: in vivo, 504 h, dose 20-40 mg/kg, time 21 day
MDA-MB-436 [16] = assay: Inhibition of colony formation in human MDA-MB-436 cells at 2 uM incubated for 9 days by crystal violet staining based analysis; assay type: functional, cell-based; details: time 9.0 day
HCT-116 = assay: Antiproliferative activity against BRCA2-deficient human HCT-116 cells assessed as inhibition of cell proliferation incubated for 5 days by MTT assay; assay type: functional, cell-based; details: HCT-116, 120 h
[17] = Toxicity in BALB/c mouse xenografted with human MDA-MB-231 cells assessed as kidney damage at 20 to 40 mg/kg, ip administered for 21 days by H and E staining based analysis; assay type: organism-based; details: in vivo, 504 h, dose 20-40 mg/kg, time 21 day
[18] = AUC (0 to t) in Sprague-Dawley rat at 1 mg/kg, iv by LC-MS/MS analysis; assay type: ADME, organism-based; details: in vivo
[19] = Metabolic stability in mouse liver microsome assessed as half life; assay type: ADME; details: liver microsomes
MDA-MB-231 [20] = assay: Antitumor activity against human MDA-MB-231 cells xenografted in BALB/c mouse assessed as tumor growth inhibition at 20 mg/kg, ip administered for 21 days; assay type: functional; details: MDA-MB-231, 504 h, time 21 day, read-out: TGI
[21] = Clearance in Sprague-Dawley rat at 1 mg/kg, iv by LC-MS/MS analysis; assay type: ADME, organism-based; details: in vivo
MDA-MB-231 [22] = assay: Antitumor activity against human MDA-MB-231 cells xenografted in BALB/c mouse assessed as tumor growth inhibition at 25 mg/kg, ip administered for 21 days; assay type: functional; details: MDA-MB-231, 504 h, time 21 day, read-out: TGI

Tmax [1]: 4.8 min
IC50 [3]: 2.93 µM
IC50 (MDA-MB-436 [4]): 2.7 µM
IC50 [5]: 0.0512 µM
IC50 (DNA polymerase theta): 0.0456 µM
AUC(0-inf) [9]: 738 ng·h/mL
inhibition [10]: 71.1%
half-life [12]: 38.5 h
Cmax [13]: 1950 ng/mL
IC50 (HCT-116): 8.9 µM
AUC(0-t) [18]: 724 ng·h/mL
half-life [19]: 5.1 min
clearance [21]: 22.7 mL/min/kg
SMILES: COc1ccc(Cl)cc1-c1cc(C)ncc1C(=O)Nc1nnc(OCC2CCN(C(=O)c3cc(Cc4n[nH]c(=O)c5ccccc45)ccc3F)CC2)s1
Activity (MCF-10A [2]): Active
Activity (MDA-MB-231 [6]): Dose-Dependent Effect
Activity (MDA-MB-231 [7]): Active
Activity (MCF-10A [8]): Active
Activity (MDA-MB-436 [11]): Active
IC50 at 5 days [14]: > 80 µM
Activity [15]: Non-Toxic
inhibition (MDA-MB-436 [16]): Active
Activity [17]: Non-Toxic
inhibition in vivo at 20 mg/kg (MDA-MB-231 [20]): 40.6%
inhibition in vivo at 25 mg/kg (MDA-MB-231 [22]): 54.4%
